Results as given in patent US20120029054A1, “RNA Interference Mediated Inhibition of GATA Binding Protein 3 (GATA3) Gene Expression Using Short Intefering Nucleic Acid (siNA)” (Merck Sharp & Dohme Corp., priority 2009, published 2012).
[invAb] = inverted abasic unit; m = 2'-O-methyl; r = 2'-OH (RNA); f = 2'-fluoro

Columns and labels:
[1] = tested on: GATA3 mRNA; assay: GATA3 mRNA knock-down (Taqman qRT-PCR) after RNAiMax transfection of mouse RAG cells; type: cell-based; settings: 10 nM siNA, 24 hrs, average of 2 experiments
Procedure, shortened: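 Murine RAG cells, 5000/well, transfected 24 h after plating with siNA (10 nM final) complexed with RNAiMax, harvested after 24 h. GATA3 mRNA quantified by TaqMan qRT-PCR with GAPDH reference; % knock-down by comparative Ct (2^−ΔΔCt) versus non-targeting control siNA.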

[2] = tested on: GATA3 mRNA; assay: GATA3 mRNA knock-down (Taqman qRT-PCR) after RNAiMax transfection of human MCF7 cells; screen and IC50 dose response; type: cell-based; settings: for % KD Human: 10 nM siNA, 24 hrs; for % KD Human / IC50: MCF7 cells; for IC50 / % KD GATA3 mRNA at 10 nM / % KD GATA3 10 nM: mean ± S.D.; for % KD GATA3 mRNA at 10 nM: Table 4, MCF7 cells, no assay mark printed (same values marked * in Table 3); for % KD GATA3 10 nM: Table 5, MCF7 cells, three experiments, no assay mark printed
Procedure, shortened: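 MCF7 cells (5000/well, 24 h) transfected with siNA–RNAiMax complexes at 10 nM final siNA for 24 h without media change. GATA3 mRNA measured by TaqMan qRT-PCR, alongside β-actin and GAPDH probes. % knock-down by comparative Ct (2^−ΔΔCt) relative to non-targeting control siNA.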

[3] = tested on: GATA3 protein; assay: GATA3 Western Blot in transfected MCF7 cells (6-well plate); type: cell-based, human; settings: 30 nM, 48 hours, average band ratio ± S.D.
Description: MCF7 cells were plated in 6-well plates at final counts of 70,000 cells/well in 2 ml of complete growth media. Transfection was performed using 2.5 uL of RNAiMax per well. Final concentration of siNAs was 30 nM (screen) and 30, 0.3, and 0.003 nM (dose response study). Protein lysates were harvested 24, 48, and 72 hours post-transfection (screen) and 72 hours post-transfection (dose response study). Protein lysates were prepared using Cell Disruption Buffer from the PARIS kit (Ambion, cat #1921) according to manufacturer's instructions. Protein concentration was measured using a Bradford Quick Start Kit (Bio-Rad, cat#500-0205).
The protein source for the Western Blot experiments were from transfection of MCF7 cells in a 6 well plate, as described above.
Protein samples were diluted 1:1 in 2× Laemmli buffer with 5% β-mercapto-ethanol and incubated at 95° C. for 5 minutes. 20-40 ug of protein was loaded in each lane of 10% Tris-HCl gel. One lane was designated for MagicMark Protein Standard (Invitrogen # LC5602). The gel was run at 100V for approximately 2 hours. Protein was transferred to a PVDF membrane at 100V for 60 minutes. Once the transfer was finished, the membrane was blocked in 1% Casein in PBS (BioRad Cat#161-0783) for 1 hour on a plate rocker at room temperature followed by the overnight incubation at 4° C. with mouse monoclonal anti-GATA3 primary antibody (Santa Cruz Biotechnology, cat# HG3-31) diluted 1:500 in 1% Casein in PBS. On the next day, the blot was washed 4×5 minutes in PBST (0.1% Tween-20 in PBS) solution and incubated for 30 minutes at room temperature with goat anti-mouse secondary antibody (Pierce Biotechnology, cat#3 31430) diluted 1:20,000 in 1% Casein. […]
The protein bands were quantified by computing their density which is defined by the ratio between the total intensity of all pixels and the area of the rectangle drawn around each band (intensity/mm^2). The density was calculated by the BioRad software.
The level of protein was quantified using the Bio-Rad VersaDoc Imager according to the protocols of that piece of equipment. […]

[4] = tested on: human GAPDH mRNA; assay: GAPDH specificity screen in human MCF7 cells (β-Actin normalised qRT-PCR); type: cell-based; settings: normalised to β-Actin, three experiments, mean ± S.D.
Description: A series of probes and primers were used to detect the various mRNA transcripts of the genes of β-Actin (human cell line only), and of GATA3 and GAPDH in mouse and human cell lines. All Taqman probes and primers for the experiments here-in described were supplied as pre-validated sets by Applied Biosystems, Inc. (see Table 2).
The assays were performed on an ABI 7900 instrument, according to the manufacturer's instructions. A TaqMan Gene Expression Master Mix (provided in the Cells-to-CT™, Applied Biosystems, Cat #4399002) was used. The PCR reactions were carried out at 50° C. for 2 min, 95° C. for 20 min followed by 40 cycles at 95° C. for 15 secs and 60° C. for 1 min.
The expression level of the gene of interest and % knock-down was calculated using Comparative Ct method: […]
These same three siNAs were tested for specificity in the human MCF7 cell line at 10 nM concentration to determine the effect of the GATA3 siNAs on the mRNA transcript of human GAPDH. In this assay, the samples from the primary screen, discussed above, O-Actin, a ubiquitously expressed ‘house-keeping’ gene, served as an endogenous control for normalization of the data.

Substance	% KD Mouse [1]	% KD Human ([2]; * Hs00231122_m1 Taqman Assay)	% KD Human ([2]; ** Hs00922328_m1 Taqman Assay)	IC50 [2]	% KD GATA3 mRNA at 10 nM [2]	% KD GATA3 10 nM [2]	Density (GATA3)/Density (α-Tubulin) [3]	% KD GAPDH 10 nM [4]
30260-DC: GATA3 siNA duplex, site 1691: sense B GcAuGAcucAcuGGAGGAc TTB (SEQ 73), antisense GUCcuccAGuGAGucAuGcUU (SEQ 74) (sense GCAUGACUCACUGGAGGACTT; antisense GUCCUCCAGUGAGUCAUGCUU; chemistry not fully specified)	47 ± 0%	60 ± 1* %	69 ± 9** %	254 ± 212 pM	60 ± 1%	60 ± 1%	0.025 ± 0.0007	−38 ± 9%
30261-DC: GATA3 siNA duplex, site 1637: sense B cAuccAGAccAGAAAccGA TTB (SEQ 75), antisense UCGGuuucuGGucuGGAuGUU (SEQ 76) (sense CAUCCAGACCAGAAACCGATT; antisense UCGGUUUCUGGUCUGGAUGUU; chemistry not fully specified)	72 ± 2%	77 ± 4* %	77 ± 4** %	51 ± 30 pM	77 ± 4%	77 ± 4%	0.01 ± 0.00004	−17 ± 1%
30285-DC: GATA3 siNA duplex, human/mouse site 2129: sense B GGucucuAGuGcuGuGAAA TTB (SEQ 123), antisense UUUcAcAGcAcuAGAGAccUU (SEQ 124) (sense GGUCUCUAGUGCUGUGAAATT; antisense UUUCACAGCACUAGAGACCUU; sense: DNA at AGT, 2'-fluoro at CU, [invAb] at 5' end, 3' end, backbone not given here; antisense: sugars from the 5' end rrrfmfmmfmffmmmmmffmm, backbone not given here)	69 ± 1%	49 ± 11* %	52 ± 10** %					
30286-DC: GATA3 siNA duplex, human/mouse site 1956: sense B GcAGGAGcAGuAucAuGAA TTB (SEQ 125), antisense UUCAuGAuAcuGcuccuGcUU (SEQ 126) (sense GCAGGAGCAGUAUCAUGAATT; antisense UUCAUGAUACUGCUCCUGCUU; sense: DNA at AGT, 2'-fluoro at CU, [invAb] at 5' end, 3' end, backbone not given here; antisense: sugars from the 5' end rrrmfmmfmffmfffffmfmm, backbone not given here)	66 ± 0%	45 ± 3* %	40 ± 16** %					
